The text below walks through data of ChEMBL document CHEMBL2424529, “Nonpeptidic propargylamines as inhibitors of lysine specific demethylase 1 (LSD1) with cellular activity” (J Med Chem, 2013).

The IC50 is the concentration that gives 50% inhibition. Read a high IC50 as lower potency.

In assay [1] the target is T1, Amine oxidase [flavin-containing] B (Homo sapiens, UniProt P27338).
T1 sequence (P27338 whole entry): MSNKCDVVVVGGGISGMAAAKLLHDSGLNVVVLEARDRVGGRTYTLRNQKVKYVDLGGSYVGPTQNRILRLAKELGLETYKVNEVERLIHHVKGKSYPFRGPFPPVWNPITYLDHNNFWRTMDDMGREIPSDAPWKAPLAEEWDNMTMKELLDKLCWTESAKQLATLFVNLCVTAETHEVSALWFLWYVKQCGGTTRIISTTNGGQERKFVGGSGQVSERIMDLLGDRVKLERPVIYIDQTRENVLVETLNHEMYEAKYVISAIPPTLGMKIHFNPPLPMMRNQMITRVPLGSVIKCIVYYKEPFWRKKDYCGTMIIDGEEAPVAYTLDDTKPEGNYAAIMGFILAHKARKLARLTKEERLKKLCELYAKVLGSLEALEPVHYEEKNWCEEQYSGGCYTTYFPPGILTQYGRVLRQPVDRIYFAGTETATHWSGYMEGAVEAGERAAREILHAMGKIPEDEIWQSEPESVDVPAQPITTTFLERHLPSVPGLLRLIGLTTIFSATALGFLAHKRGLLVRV
The note with it: 1 h, read-out: INH.
Description: Inhibition of MAOB (unknown origin) using kynuramine as substrate at 10 uM after 1 hr by fluorescence assay relative to control

Assay [2] addresses T1, Amine oxidase [flavin-containing] B. The settings on record: 1 h, read-out: INH. This is another data set of the same source.
Description: Inhibition of MAOB (unknown origin) using kynuramine as substrate at 100 uM after 1 hr by fluorescence assay relative to control
In assay [3] the target is T2, Amine oxidase [flavin-containing] A (Homo sapiens, UniProt P21397).
T2 sequence (P21397 whole entry): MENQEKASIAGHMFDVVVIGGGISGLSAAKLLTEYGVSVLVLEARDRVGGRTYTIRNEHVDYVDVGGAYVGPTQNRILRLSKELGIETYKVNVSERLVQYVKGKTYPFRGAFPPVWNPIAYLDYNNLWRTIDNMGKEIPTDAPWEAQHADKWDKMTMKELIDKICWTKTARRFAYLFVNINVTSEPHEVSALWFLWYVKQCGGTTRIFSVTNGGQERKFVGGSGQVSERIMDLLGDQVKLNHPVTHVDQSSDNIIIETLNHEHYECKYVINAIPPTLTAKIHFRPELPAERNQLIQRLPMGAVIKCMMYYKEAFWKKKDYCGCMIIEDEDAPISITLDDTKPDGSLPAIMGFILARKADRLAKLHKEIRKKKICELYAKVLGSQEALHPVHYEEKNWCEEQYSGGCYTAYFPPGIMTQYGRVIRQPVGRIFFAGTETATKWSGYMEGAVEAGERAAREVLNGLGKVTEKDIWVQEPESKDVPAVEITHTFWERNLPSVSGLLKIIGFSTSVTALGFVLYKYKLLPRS
The settings on record: 1 h, read-out: INH.
Description: Inhibition of MAOA (unknown origin) using kynuramine as substrate at 100 uM after 1 hr by fluorescence assay relative to control

In assay [4] the target is T1, Amine oxidase [flavin-containing] B. The settings on record: 1 h, read-out: INH. This is another data set of the same source.
Description: Inhibition of MAOB (unknown origin) using kynuramine as substrate at 500 uM after 1 hr by fluorescence assay relative to control
Assay [5] deals with T3, Lysine-specific histone demethylase 1A (Homo sapiens, UniProt O60341). The assay can be described thus: biochemical. It counts as cell-based, Sf9.
Description: Inhibition of LSD1 (unknown origin) expressed in Sf9 cells using H3K4(me2) as substrate preincubated for 30 mins prior to substrate addition measured after 90 mins by horseradish peroxidase assay
The target of assay [6] is T1, Amine oxidase [flavin-containing] B. The assay can be described thus: Inhibition of MAOB (unknown origin) using kynuramine as substrate after 1 hr by fluorescence assay.
For assay [7], the target named is T2, Amine oxidase [flavin-containing] A. The settings on record: 1 h, read-out: INH. This is another data set of the same source.
Description: Inhibition of MAOA (unknown origin) using kynuramine as substrate at 10 uM after 1 hr by fluorescence assay relative to control
In assay [8] the target is T3, Lysine-specific histone demethylase 1A. Kind of assay: Inhibition of LSD1 (unknown origin) expressed in Sf9 cells using H3K4(me2) as substrate at 200 uM preincubated for 30 mins prior to substrate addition measured after 90 mins by horseradish peroxidase assay relative to control.
The target of assay [9] is T2, Amine oxidase [flavin-containing] A. The assay can be described thus: Inhibition of MAOA (unknown origin) using kynuramine as substrate after 1 hr by fluorescence assay.

Turning to `C#CCN(C)CC(O)COc1ccc2cc(Br)ccc2c1` (stereo unspecified), the inhibition at 10 µM in assay [1] was 100%. Take `C#CCN(C)CC(O)COc1cccc2ccccc12` (stereo unspecified): in assay [2], the inhibition at 100 µM is 32%. In the case of `CC#CCNCCCC[C@H](NC(=O)c1ccccc1)C(=O)OC(C)(C)C`, in assay [3], the inhibition at 100 µM worked out at 45%. Further, the inhibition at 500 µM in assay [4] is 51%. In assay [5], this compound came in with an IC50 of 132 µM. As to `C#CCNCCCOc1cccc(C(=O)NC(C)C)c1`, the inhibition at 100 µM in assay [3] amounted to 100%. Moreover, it took 17 µM to reach half-maximal inhibition in assay [6] (IC50). Take `C#CCN(C)CC(O)COc1ccc2ccccc2c1` (stereo unspecified): in [1], the inhibition at 10 µM stood at 29%. In the case of `OC(CNC1CC1)COc1ccc2cc(Br)ccc2c1` (stereo unspecified), the inhibition at 10 µM in assay [7] and in assay [1] was 100% each time. Further, in [5], the midpoint of inhibition, the IC50, lay at 111 µM.

In [5], `C#CCNCCCC[C@H](NC(=O)c1ccccc1)C(=O)OC(C)(C)C` came in with an IC50 of 144 µM. As to `C#CCNCC(O)COc1ccccc1-c1ccccc1` (stereo unspecified), the inhibition at 10 µM in assay [7] stood at 5%. In assay [8], this compound gave an inhibition of 36.3%. Further, the inhibition at 100 µM in assay [2] turned out to be 27%. For `C#CCN(C)CCCC[C@H](NC(=O)OCc1ccccc1)C(=O)OCc1ccccc1`, the inhibition at 100 µM in assay [3] worked out at 36%.

Turning to `C#CCN(C)CC(O)COc1ccc(-c2ccccc2)cc1` (stereo unspecified), the inhibition at 10 µM in assay [1] was 100%.

For the compound `C#CCNCC(O)COc1ccc2ccccc2c1` (stereo unspecified), the inhibition at 10 µM in assay [7] stood at 65%; in assay [1], 19%. Take `C#CCNCCCC[C@H](NC(=O)OCc1ccccc1)C(=O)OCc1ccccc1`: the inhibition at 500 µM in [4] amounted to 67%.

`C#CCNCC(O)COc1ccc(-c2ccccc2)cc1` (stereo unspecified): the values for the IC50 in [6] and in [9] were 0.06 µM and 0.55 µM, respectively. As for `OC(CNC1CC1)COc1ccccc1-c1ccccc1` (stereo unspecified), the inhibition at 100 µM in assay [2] amounted to 45%. Turning to `OC(CNC1CC1)COc1ccc(-c2ccccc2)cc1` (stereo unspecified), the inhibition at 10 µM in [7] and in [1] was 100% in each case.

In turn, `C#CCNCCCOc1cccc(C(=O)NCc2ccccc2)c1` registered an IC50 in assay [6] of 5.7 µM. Take `OC(CNC1CC1)COc1ccc2ccccc2c1` (stereo unspecified): the inhibition at 10 µM in assay [1] came to 94%. On to `C#CCN(C)CC(O)COc1ccccc1-c1ccccc1` (stereo unspecified), for which, in assay [2], the inhibition at 100 µM was determined as 30%. Turning to `C#CCN(C)CCCOc1cccc(NC(=O)c2ccccc2)c1`, in [7], the inhibition at 10 µM was determined as 73%. The same compound displayed an IC50 in assay [6] of 0.1 µM. `C#CCNCCCOc1cccc(NC(=O)c2ccccc2)c1`: the inhibition at 10 µM in [7] came to 62%.
